Test results as given in US10508085B2, “Compounds and methods for IDO and TDO modulation, and indications therefor” (Plexxikon Inc., priority 2016, dated 2019).

Key:
[1] = biological target: T1, Human Tryptophan 2,3-dioxygenase (TDO) (Homo sapiens, UniProt P48775); test: Human TDO enzymatic assay (kynurenine level); format: biochemical; details: 1 nM TDO, 350 μM L-Trp; geometric mean; read-out: TDO GMean: IC50 (μM) (Biochemical Assay)
T1 construct: His tag (N); made in house; host or cells: E. coli
T1 sequence (P48775 whole entry): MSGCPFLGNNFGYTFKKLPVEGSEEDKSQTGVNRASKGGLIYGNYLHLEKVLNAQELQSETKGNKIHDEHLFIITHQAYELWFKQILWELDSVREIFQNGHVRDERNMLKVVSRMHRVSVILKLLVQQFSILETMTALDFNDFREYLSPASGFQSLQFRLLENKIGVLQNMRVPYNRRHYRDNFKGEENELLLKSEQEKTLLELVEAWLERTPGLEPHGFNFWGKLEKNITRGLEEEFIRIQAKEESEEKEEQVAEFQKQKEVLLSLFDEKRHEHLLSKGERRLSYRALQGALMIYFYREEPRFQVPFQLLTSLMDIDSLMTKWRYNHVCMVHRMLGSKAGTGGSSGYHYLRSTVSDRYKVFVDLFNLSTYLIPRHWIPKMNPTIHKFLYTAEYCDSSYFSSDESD
Procedure, shortened: (§1)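 IDO conditions: 6 nM His-IDO, 10 μM L-Trp, 5 μM methylene blue, 20 min, RT. TDO conditions: 1 nM His-TDO, 350 μM L-Trp, 0.4 μM methylene blue, 70 min, RT. Both used pH 6.5 phosphate plus ascorbate/catalase, TCA stop at 50° C, kynurenine readout, nonlinear-regression IC50.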

[2] = biological target: T2, human IDO (IDO1-expressing HEK293 cells) (Homo sapiens, UniProt P14902); test: Cell based kynurenine assay, IDO1-expressing HEK293 cell clones; details: IDO1-expressing HEK293 cells, 24 hours, geometric mean; read-out: HEK293 IDO1 Kynurenine GMean IC50 (μM) (Cellular Assay)
T2 construct: expressed in transfected cells
T2 sequence (P14902 whole entry): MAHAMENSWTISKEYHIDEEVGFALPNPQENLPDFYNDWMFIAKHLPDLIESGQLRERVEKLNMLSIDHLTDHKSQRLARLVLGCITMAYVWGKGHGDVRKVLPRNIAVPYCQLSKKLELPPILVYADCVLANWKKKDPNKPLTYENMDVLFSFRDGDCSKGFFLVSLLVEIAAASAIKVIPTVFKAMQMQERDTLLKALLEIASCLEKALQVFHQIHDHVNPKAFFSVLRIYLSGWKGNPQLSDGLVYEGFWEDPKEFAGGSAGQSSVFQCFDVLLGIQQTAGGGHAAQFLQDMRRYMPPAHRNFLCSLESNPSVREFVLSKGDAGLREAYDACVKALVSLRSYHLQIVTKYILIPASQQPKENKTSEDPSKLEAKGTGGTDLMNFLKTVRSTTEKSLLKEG
Procedure, shortened: (§2)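 IC50 values come from nonlinear regression of kynurenine reduction in supernatants of human IDO1- or TDO-expressing HEK293 cells incubated 24 h with serially diluted compounds, normalised to cell and media-only controls containing 0.2% DMSO.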

[3] = biological target: T3, Human Indoleamine 2,3-dioxygenase (IDO) (Homo sapiens, UniProt P14902); test: Human IDO enzymatic assay (kynurenine level); format: biochemical; details: 6 nM IDO, 10 μM L-Trp; geometric mean; read-out: IDO1 GMean: IC50 (μM) (Biochemical Assay)
T3 construct: His tag (N); made in house; host or cells: E. coli
T3 sequence (P14902 whole entry): as above
Procedure, shortened: as §1

[4] = biological target: T4, human TDO (TDO-expressing HEK293 cells) (Homo sapiens, UniProt P48775); test: Cell based kynurenine assay, TDO-expressing HEK293 cell clones; details: TDO-expressing HEK293 cells, 24 hours, geometric mean; read-out: HEK293 TDO Kynurenine GMean IC50 (μM) (Cellular Assay)
T4 construct: expressed in transfected cells
T4 sequence (P48775 whole entry): as the sequence (P48775 whole entry) above
Procedure, shortened: as §2

Measured: IC50

CCOC(=O)N1CCC(C(C)(C)[C@H](O)c2cc(Cl)cc3cn[nH]c23)CC1 [Compound P-0541, ethyl (S)-4-(1-(5-chloro-1H-indazol-7-yl)-1-hydroxy-2-methylpropan-2-yl)piperidine-1-carboxylate]
0.0001 to 10 µM: all assays above

CC(=O)N1CCC(C(C)(C)[C@H](O)c2cc(Cl)cc3cn[nH]c23)CC1 [Compound P-0542, (S)-1-(4-(1-(5-chloro-1H-indazol-7-yl)-1-hydroxy-2-methylpropan-2-yl)piperidin-1-yl)ethan-1-one]
0.0001 to 10 µM: all assays above

CCCC(=O)N1CCC(C(C)(C)[C@H](O)c2cc(Cl)cc3cn[nH]c23)CC1 [Compound P-0543, (S)-1-(4-(1-(5-chloro-1H-indazol-7-yl)-1-hydroxy-2-methylpropan-2-yl)piperidin-1-yl)butan-1-one]
0.0001 to 10 µM: all assays above

CC(C)C(=O)N1CCC(C(C)(C)[C@H](O)c2cc(Cl)cc3cn[nH]c23)CC1 [Compound P-0544, (S)-1-(4-(1-(5-chloro-1H-indazol-7-yl)-1-hydroxy-2-methylpropan-2-yl)piperidin-1-yl)-2-methylpropan-1-one]
0.0001 to 10 µM: all assays above

CC(C)CC(=O)N1CCC(C(C)(C)[C@H](O)c2cc(Cl)cc3cn[nH]c23)CC1 [Compound P-0545, (S)-1-(4-(1-(5-chloro-1H-indazol-7-yl)-1-hydroxy-2-methylpropan-2-yl)piperidin-1-y1)-3-methylbutan-1-one]
0.0001 to 10 µM: all assays above

CC(C)(C1CCN(C(=O)C2CCOCC2)CC1)[C@H](O)c1cc(Cl)cc2cn[nH]c12 [Compound P-0546, (S)-(4-(1-(5-chloro-1H-indazol-7-yl)-1-hydroxy-2-methylpropan-2-yl)piperidin-1-yl)(tetrahydro-2H-pyran-4-yl)methanone]
0.0001 to 10 µM: all assays above

CN(C)CC(=O)N1CCC(C(C)(C)[C@H](O)c2cc(Cl)cc3cn[nH]c23)CC1 [Compound P-0547, (S)-1-(4-(1-(5-chloro-1H-indazol-7-yl)-1-hydroxy-2-methylpropan-2-yl)piperidin-1-yl)-2-(dimethylamino) ethan-1-one]
0.0001 to 10 µM: all assays above

CC(C)(C1CCN(C(=O)c2ccc(Cl)cn2)CC1)[C@H](O)c1cc(Cl)cc2cn[nH]c12 [Compound P-0548, (S)-(4-(1-(5-chloro-1H-indazol-7-yl)-1-hydroxy-2-methylpropan-2-yl)piperidin-1-yl)(5-chloropyridin-2-yl)methanone]
0.0001 to 10 µM: all assays above

CCNC(=O)N1CCC(C(C)(C)[C@H](O)c2cc(Cl)cc3cn[nH]c23)CC1 [Compound P-0550, (S)-4-(1-(5-chloro-1H-indazol-7-yl)-1-hydroxy-2-methylpropan-2-yl)-N-ethylpiperidine-1-carboxamide]
0.0001 to 10 µM: all assays above

CC(C)(C1CCN(C(=O)NC2CC2)CC1)[C@H](O)c1cc(Cl)cc2cn[nH]c12 [Compound P-0551, (S)-4-(1-(5-chloro-1H-indazol-7-yl)-1-hydroxy-2-methylpropan-2-yl)-N-cyclopropylpiperidine-1-carboxamide]
0.0001 to 10 µM: all assays above

CC(C)(C1CCN(C(=O)NC2CCC2)CC1)[C@H](O)c1cc(Cl)cc2cn[nH]c12 [Compound P-0552, (S)-4-(1-(5-chloro-1H-indazol-7-yl)-1-hydroxy-2-methylpropan-2-yl)-N-cyclobutylpiperidine-1-carboxamide]
0.0001 to 10 µM: all assays above

COCCCNC(=O)N1CCC(C(C)(C)[C@H](O)c2cc(Cl)cc3cn[nH]c23)CC1 [Compound P-0553, (S)-4-(1-(5-chloro-1H-indazol-7-yl)-1-hydroxy-2-methylpropan-2-yl)-N-(3-methoxypropyl) piperidine-1-carboxamide]
0.0001 to 10 µM: all assays above

CC(C)(C1CCN(C(=O)Nc2cccnc2)CC1)[C@H](O)c1cc(Cl)cc2cn[nH]c12 [Compound P-0554, (S)-4-(1-(5-chloro-1H-indazol-7-yl)-1-hydroxy-2-methylpropan-2-yl)-N-(pyridin-3-yl)piperidine-1-carboxamide]
0.0001 to 10 µM: all assays above

CC(C)(C1CCN(C(=O)NC(=O)c2ccccc2)CC1)[C@H](O)c1cc(Cl)cc2cn[nH]c12 [Compound P-0555, (S)-N-benzoyl-4-(1-(5-chloro-1H-indazol-7-yl)-1-hydroxy-2-methylpropan-2-yl)piperidine-1-carboxamide]
0.0001 to 10 µM: all assays above

CC(C)(C1CCN(C(=O)NCCS(C)(=O)=O)CC1)[C@H](O)c1cc(Cl)cc2cn[nH]c12 [Compound P-0556, (S)-4-(1-(5-chloro-1H-indazol-7-yl)-1-hydroxy-2-methylpropan-2-yl)-N-(2-(methylsulfonyl)ethyl)piperidine-1-carboxamide]
0.0001 to 10 µM: all assays above

CCS(=O)(=O)N1CCC(C(C)(C)[C@H](O)c2cc(Cl)cc3cn[nH]c23)CC1 [Compound P-0557, (S)-1-(5-chloro-1H-indazol-7-yl)-2-(1-(ethylsulfonyl)piperidin-4-yl)-2-methylpropan-1-ol]
0.0001 to 10 µM: all assays above

CC(C)(C1CCN(C(=O)Nc2ccc(F)nc2)CC1)C(O)c1cc(Cl)cc2cn[nH]c12 (stereo not drawn) [Compound P-0558, 4-(1-(5-chloro-1H-indazol-7-yl)-1-hydroxy-2-methylpropan-2-yl)-N-(6-fluoropyridin-3-yl)piperidine-1-carboxamide]
0.0001 to 10 µM: all assays above

CC(C)(C1CCN(C(=O)Nc2ccc(F)nc2)CC1)[C@H](O)c1cc(Cl)cc2cn[nH]c12 [Compound P-0559, (S)-4-(1-(5-chloro-1H-indazol-7-yl)-1-hydroxy-2-methylpropan-2-yl)-N-(6-fluoropyridin-3-yl)piperidine-1-carboxamide]
0.0001 to 10 µM: all assays above

CC(C)(C1CCN(C(=O)NCC2CC2)CC1)[C@H](O)c1cc(Cl)cc2cn[nH]c12 [Compound P-0560, (S)-4-(1-(5-chloro-1H-indazol-7-yl)-1-hydroxy-2-methylpropan-2-yl)-N-(cyclopropylmethyl) piperidine-1-carboxamide]
0.0001 to 10 µM: all assays above

CC(C)(C1CCN(C(=O)NCCC(F)(F)F)CC1)[C@H](O)c1cc(Cl)cc2cn[nH]c12 [Compound P-0561, (S)-4-(1-(5-chloro-1H-indazol-7-yl)-1-hydroxy-2-methylpropan-2-yl)-N-(3,3,3-trifluoropropyl) piperidine-1-carboxamide]
0.0001 to 10 µM: all assays above

CC(C)(C1CCN(C(=O)NCC(F)(F)F)CC1)[C@H](O)c1cc(Cl)cc2cn[nH]c12 [Compound P-0562, (S)-4-(1-(5-chloro-1H-indazol-7-yl)-1-hydroxy-2-methylpropan-2-yl)-N-(2,2,2-trifluoroethyl) piperidine-1-carboxamide]
0.0001 to 10 µM: all assays above

CC(C)(C1CCN(C(=O)Nc2ccccc2)CC1)[C@H](O)c1cc(Cl)cc2cn[nH]c12 [Compound P-0563, (S)-4-(1-(5-chloro-1H-indazol-7-yl)-1-hydroxy-2-methylpropan-2-yl)-N-phenylpiperidine-1-carboxamide]
0.0001 to 10 µM: all assays above

CC(C)CNC(=O)N1CCC(C(C)(C)[C@H](O)c2cc(Cl)cc3cn[nH]c23)CC1 [Compound P-0564, (S)-4-(1-(5-chloro-1H-indazol-7-yl)-1-hydroxy-2-methylpropan-2-yl)-N-isobutylpiperidine-1-carboxamide]
0.0001 to 10 µM: all assays above

CC(C)(C1CCN(C(=O)NC[C@H]2CCCO2)CC1)[C@H](O)c1cc(Cl)cc2cn[nH]c12 [Compound P-0565, 4-((S)-1-(5-chloro-1H-indazol-7-yl)-1-hydroxy-2-methylpropan-2-yl)-N-(((R)-tetrahydrofuran-2-yl)methyl)piperidine-1-carboxamide]
0.0001 to 10 µM: all assays above
